One data set deals with RAW264.7 cells. As to the kind of experiment: Cytotoxicity test (MTT assay). Type of data set: cell-based. The settings on record: concentrations less than 5 μg/mL, 24 h, MTT. On the procedure: (§1) To assess the effects of tiamulin and Z33 on the viability of RAW264.7 macrophages, the MTT assay was performed according to previous reports. […] After discarding the MTT solution, DMSO (150 μL) was added to each well to dissolve all crystals. OD490nm was recorded using EnSight Multimode Plate Reader (PerkinElmer, […], USA).
For orientation: Tetrazolium dyes change colour on reduction, which living cells bring about.

Data set [1] is described as follows: Cytotoxicity test (MTT assay). Type of data set: cell-based. The settings on record: mouse, RAW264.7 macrophages, RAW264.7, MTT, tested up to 20 μg/mL. On the procedure: as §1
For data set [2], the system named is S. aureus clinical strain 144. As to the kind of experiment: Determination of MPC (mutant prevention concentration). It is filed as cell-based, Staphylococcus aureus. How it is done: (§2) The drug-resistant tendency suppression potential of Z33 and tiamulin was determined as described with minor modifications. In the test, for each S. aureus strain, 4 mL of overnight cultures were inoculated into 100 mL of fresh BHI broth and then incubated for 4.5 h at 37 °C with shaking (210 rpm). Cultures were centrifuged at 5000 r/min for 10 min. The supernatant was discarded and resuspended in the 4 mL of saline to achieve a bacterial density of ~3 × 10^10 CFU/mL. In total, 100 μL of each culture was spread onto MHA containing various concentrations of Z33 and tiamulin. […] Plates were incubated at 37 °C for a total of 72 h and recorded every 24 h for the appearance of colonies. MPC was defined as the lowest concentration with no growth of colonies on the agar plate. MPC was carried out in triplicate.

The test system of data set [3] is MRSA ATCC 43300. The description is as above. Type of data set: cell-based, Staphylococcus aureus. How it is done: as §2
For data set [4], the system named is S. aureus clinical strain AD3. The data set is described as above. It is filed as cell-based, Staphylococcus aureus. How it is done:
as §2

Data set [5] concerns S. aureus ATCC 29213. The data set is described as above. It is filed as cell-based, Staphylococcus aureus. How it is done:
as §2

The next data set relates to four S. aureus strains. The data set is described as follows: microbe, parasite or virus in culture. It is filed as cell-based, Staphylococcus aureus. On the procedure: To assess the propensity for the development of bacterial resistance, the ability of Z33 and tiamulin to induce resistance to four strains were tested, respectively. Serial passages at 37 °C were performed daily in BHI broth containing sub-MIC concentration (1/4 MIC) of Z33 and tiamulin. The MIC values were daily determined and recorded by the broth microdilution method. A duration of 13 passages was performed in every case.

The test system of data set [6] is S. aureus clinical strain 144. As to the kind of experiment: MIC and MBC determination (broth microdilution). The note with it: Staphylococcus aureus; for MIC: first value of cell; for MBC: second value of cell. Type of data set: cell-based. How it is done: (§3) The MIC values of Z33 against MRSA ATCC 43300 and S. aureus clinical isolates were measured according to the broth microdilution guidelines provided by the Clinical and Laboratory Standards Institute (CLSI). S. aureus ATCC 29213 was used as the quality control strain, and the quality control range was referred to the CLSI. The MIC value is defined as the lowest concentration of the compounds with no visible growth of bacteria. The MIC assay was independently repeated three times.
(§4) The MBC values of antibacterial agents were measured after incubation at 37 °C for 24 h. Briefly, 100 µL of bacterial solution from the three wells behind the corresponding well of MIC was absorbed and spread on the Mueller–Hinton Agar (MHA). The MBC refers to the lowest concentration corresponding to the amount of colony-forming unit (CFU) ≤ 5 on the medium after 18~24 h of incubation at 37 °C.
Background: Dilution methods test growth across graded concentrations, often in twofold steps.

Data set [7] deals with MRSA ATCC 43300. The data set is described as follows: MIC and MBC determination (broth microdilution). Type of data set: cell-based. The note with it: Staphylococcus aureus; for MIC: first value of MIC/MBC cell; for MBC: second value of MIC/MBC cell. On the procedure: as §3, §4
The test system of data set [8] is S. aureus clinical strain AD3. As to the kind of experiment: MIC and MBC determination (broth microdilution). Type of data set: cell-based. The settings on record: Staphylococcus aureus; for MIC: first value of cell; for MBC: second value of cell. On the procedure:
as §3, §4

For data set [9], the system named is S. aureus ATCC 29213. The data set is described as follows: MIC and MBC determination (broth microdilution). It is filed as cell-based. The note with it: Staphylococcus aureus; for MIC: ATCC29213, first value of cell; for MBC: ATCC29213, second value of cell. On the procedure:
as §3, §4

Data set [10] relates to MRSA ATCC 43300. The data set is described as follows: Neutropenic mouse thigh infection model. It is filed as in vivo, mice. The settings on record: 20 mg/kg intravenous. How it is done:
The neutropenic mouse thigh infection model was used to determine the in vivo antibacterial activity of Z33 [23]. Briefly, female mice were rendered neutropenic (neutrophil count ≤ 100/mm^3) via intraperitoneal injection of cyclophosphamide on day 4 (150 mg/kg) and day 1 (100 mg/kg) before infection. MRSA ATCC 43300 cells were collected in the logarithmic phase and resuspended in 0.9% saline. The thigh infection model was established by injection of 100 μL of MRSA suspension (10^7 CFU/mL) into the posterior thighs of mice. After 2 h post-infection, mice were intravenously injected with tiamulin and Z33 at a dose of 20 mg/kg, and the untreated groups were administrated with an equal amount of saline. Mice were euthanized after treatment of 22 h, thigh tissue was aseptically collected, weighed, homogenized, and serially diluted in saline, respectively. CFU counts were determined by the flat colony counting method.

In another data set the target is T1, CYP2E1 (Homo sapiens, UniProt P05181).
T1 construct: 40 µL of the human liver microsomal enzyme (final concentration is 0.5 g/L); tissue Research Institute for Liver Diseases Co., Ltd. (Shanghai, China); host or cells: human liver microsomes
T1 sequence (P05181 whole entry): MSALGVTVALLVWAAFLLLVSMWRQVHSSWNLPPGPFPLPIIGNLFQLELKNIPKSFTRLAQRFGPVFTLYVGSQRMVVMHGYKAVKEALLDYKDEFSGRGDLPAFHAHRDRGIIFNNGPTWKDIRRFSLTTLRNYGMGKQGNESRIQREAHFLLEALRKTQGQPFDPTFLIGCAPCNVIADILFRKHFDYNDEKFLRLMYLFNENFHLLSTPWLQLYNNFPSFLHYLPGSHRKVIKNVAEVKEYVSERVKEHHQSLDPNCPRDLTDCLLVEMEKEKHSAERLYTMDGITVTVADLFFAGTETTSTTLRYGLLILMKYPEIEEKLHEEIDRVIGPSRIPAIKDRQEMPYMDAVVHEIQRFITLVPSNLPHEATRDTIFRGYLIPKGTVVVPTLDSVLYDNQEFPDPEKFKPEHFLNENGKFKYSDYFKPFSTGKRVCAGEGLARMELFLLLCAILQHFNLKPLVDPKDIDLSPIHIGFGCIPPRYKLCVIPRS
The data set is described as follows: CYP450 inhibition assay, human liver microsomes, chlorzoxazone probe. It is filed as in vitro ADME. The settings on record: human liver microsomes. On the procedure:
(§5) The inhibition effect of Z33 and tiamulin on the human liver microsomal enzyme was determined as described in the literature with some modifications. Experiments were performed in 96-well plates with a final incubation volume of 100 μL per well. 40 µL of the human liver microsomal enzyme (final concentration is 0.5 g/L), 20 µL of probe substrate (final concentration of testosterone and chlorzoxazone is 20 µmol/L), and 20 µL of test drug were mixed in each well. After preincubation at 37 °C for 5 min, the reactions were started by the addition of 20 μL of NADPH (final concentration is 1 mmol/L). Depending on the substrate, the chlorzoxazone and testosterone groups were incubated at 37 °C for 25 min and 10 min, respectively. The reaction was terminated by adding 100 µL of acetonitrile, and then the supernatant was centrifuged to analyse by LC-MS/MS.
For orientation: Liver microsomes are a subcellular fraction often used to study metabolism.

The target in a further data set is T2, CYP3A4 (Homo sapiens, UniProt P08684).
T2 construct: 40 µL of the human liver microsomal enzyme (final concentration is 0.5 g/L); tissue Research Institute for Liver Diseases Co., Ltd. (Shanghai, China); host or cells: human liver microsomes
T2 sequence (P08684 whole entry): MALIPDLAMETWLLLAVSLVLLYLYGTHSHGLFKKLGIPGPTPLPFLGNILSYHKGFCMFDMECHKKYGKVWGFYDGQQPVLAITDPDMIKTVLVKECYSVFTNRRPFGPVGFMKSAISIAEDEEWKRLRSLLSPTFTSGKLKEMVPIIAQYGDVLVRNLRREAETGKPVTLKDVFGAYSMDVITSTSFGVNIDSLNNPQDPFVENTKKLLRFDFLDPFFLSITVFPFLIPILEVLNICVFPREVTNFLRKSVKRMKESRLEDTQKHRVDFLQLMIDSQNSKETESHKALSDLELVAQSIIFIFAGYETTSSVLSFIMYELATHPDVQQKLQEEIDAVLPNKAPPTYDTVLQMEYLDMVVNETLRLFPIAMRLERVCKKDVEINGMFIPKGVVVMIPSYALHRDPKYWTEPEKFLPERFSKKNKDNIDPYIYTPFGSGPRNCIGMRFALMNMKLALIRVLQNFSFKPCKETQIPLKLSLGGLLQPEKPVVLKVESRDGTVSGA
The data set is described as follows: CYP450 inhibition assay, human liver microsomes, testosterone probe. It is filed as in vitro ADME. How it is done: as §5

The record followed here is article PMC9370166, “In Vitro and In Vivo Antibacterial Activity, Toxicity and Resistance Analysis of Pleuromutilin Derivative Z33 against Methicillin-Resistant Staphylococcus aureus” (Molecules, 2022).

In brackets after ≈: the same amount, converted by molar mass. Read-outs that look alike come from different tables or passages of the source.

Regarding `C=C[C@]1(C)C[C@@H](OC(=O)CSCCN(CC)CC)[C@]2(C)[C@H](C)CC[C@]3(CCC(=O)[C@H]32)[C@@H](C)[C@@H]1O` [tiamulin, reference compound], the “cytotoxicity on RAW264.7 cells” value with RAW264.7 cells is “No significant cytotoxicity”. Also, the IC50 at 24 h in data set [1] is at least 20 µg/mL. The MPC in [2] stood at 1 µg/mL; with MRSA ATCC 43300 [3], 1 µg/mL; in [4], 2 µg/mL; in the data set with S. aureus ATCC 29213 [5], 1 µg/mL. Also, the MIC in the data set on four S. aureus strains (Staphylococcus aureus, read-out: MICs of resistant clones) was 2 to 8 µg/mL (≈ 4.05 to 16.2 µM); in data set [6], 0.5 µg/mL (≈ 1.01 µM); against MRSA ATCC 43300 [7], 0.5 µg/mL (≈ 1.01 µM); in data set [8], 1 µg/mL (≈ 2.03 µM); in the data set on S. aureus ATCC 29213 [9], 0.5 µg/mL (≈ 1.01 µM). Besides, the “fold increase in MICs” value in the data set on four S. aureus strains (after 13 passages) was around 32 fold. Moreover, the “passages after which resistance developed (≥ 4-fold MIC increase)” value in the data set with four S. aureus strains (four S. aureus strains) came to 3 passages. Also, the MBC in [6] came to 2 µg/mL (≈ 4.05 µM); in the data set with MRSA ATCC 43300 [7], 1 µg/mL (≈ 2.03 µM); in data set [8] it was 2 µg/mL (≈ 4.05 µM); in the data set on S. aureus ATCC 29213 [9], 1 µg/mL (≈ 2.03 µM). Also, in the data set on MRSA ATCC 43300 [10] (after treatment for 24 h), the “MRSA inoculum in the thigh muscle” value is reported as 7.655 ± 0.067 log10 CFU/g. The “reduction of bacterial load in the thigh muscle” value in the data set with MRSA ATCC 43300 [10] (versus untreated group) is reported as 0.771 log10 CFU/g. For the same compound, the IC50 on CYP2E1 (Figure 6, read-out: IC50 CYP2E1 (value in plot key)) was 184 nM; on CYP2E1 (bound given in text, read-out: IC50 CYP2E1), below 250 nM; at CYP3A4, 1600 nM.

For `C=C[C@]1(C)C[C@@H](OC(=O)CSC(C)(C)CNC(=O)[C@H](N)C(C)C)[C@]2(C)[C@H](C)CC[C@]3(CCC(=O)[C@H]32)[C@@H](C)[C@@H]1O` [valnemulin], the MIC (in data set [6]; with MRSA ATCC 43300 [7]; in data set [8]; in the data set with S. aureus ATCC 29213 [9]) was 0.125 µg/mL (≈ 0.221 µM) throughout. Also, the MBC in data set [6] is 0.25 µg/mL (≈ 0.443 µM); with MRSA ATCC 43300 [7] it was 0.125 µg/mL (≈ 0.221 µM); in data set [8], 0.125 µg/mL (≈ 0.221 µM); against S. aureus ATCC 29213 [9], 0.125 µg/mL (≈ 0.221 µM).

Usually IC50 stands for the midpoint of a concentration-inhibition curve. By MBC is commonly meant the lowest tested concentration that kills the bacteria rather than only halting them. Low values mean more potent killing, high ones less potent killing.
